For this test, the system named is MAPK14 (sprague-dawley rat). The test can be described thus: IL-1 beta-induced P38 Phosphorylation. To be noted: astrocyte.

The record followed here is the Kinase Knowledgebase extract (Sharma et al. 2016).

In turn, `CC(C)(C)/[N+]([O-])=C/c1ccccc1` came in with an IC50 of 500 µM.

Molecule `CC(=O)N[C@@H](CS)C(=O)O` returned an IC50 of 500 µM.
